Tested on: E. coli TOP10
Test: Suicide expression system (SES) growth inhibition
Format: cell-based
[1] = Table 5, mixed-motif library, re-tested in the Bioscreen C
[2] = Table 1, 0.1% inducer (arabinose), pBAD/gIIIA in E. coli TOP10, Bioscreen C 37° C., end point OD450 vs control vector
[3] = Table 4, variants of SEQ ID NO:10, re-tested in the Bioscreen C
[4] = Table 2, variants of SEQ ID NO:1, re-tested in the Bioscreen C
[5] = Table 3, variants of SEQ ID NO:5, re-tested in the Bioscreen C

Row | Substance | Growth inhibition (%) [1] | Growth inhibition (%) [3] | further results
1 | 228 (RRRPPRLPRPFPLRPPPRFPRPFPIRP; Synthetic antimicrobial peptide) [compound 228] | 96% | – | –
2 | 7 (RRRPFPRPFPRPFPRPFPRPFPRPFPR; Synthetic antimicrobial peptide) [compound 7] | – | – | Growth inhibition (%) [2]: 39%
3 | 176 (RRRPLRPPVRPPIRPPIRPPFRPPFRP; Synthetic antimicrobial peptide) [compound 176] | – | 81% | –
4 | 289 (RRRPPRLPRPLPVRPPPRVPRPFPVRP; Synthetic antimicrobial peptide) [compound 289] | 95% | – | –
5 | 188 (RRRPFRPPFRPPIRPPVRPPVRPPFRP; Synthetic antimicrobial peptide) [compound 188] | – | 83% | –
6 | 22 (RRRPPRLPPRFPPRFPPRVPPRLPPRF; Synthetic antimicrobial peptide) [compound 22] | – | – | Growth inhibition (%) [4]: 81%
7 | 102 (RRRPIRPPFRPPIRPPFRPPLRPPFRP; Synthetic antimicrobial peptide) [compound 102] | – | 77% | –
8 | 47 (RRRPRPFPRPFPRPVPRPIPRPFPRPF; Synthetic antimicrobial peptide) [compound 47] | – | – | Growth inhibition (%) [5]: 92%
9 | 36 (RRRPRPFPRPFPRPFPRPFPRPIPRPI; Synthetic antimicrobial peptide) [compound 36] | – | – | Growth inhibition (%) [5]: 77%
10 | 41 (RRRPRPFPRPFPRPFPRPVPRPLPRPV; Synthetic antimicrobial peptide) [compound 41] | – | – | Growth inhibition (%) [5]: 71%
11 | 123 (RRRPFRPPLRPPIRPPIRPPFRPPFRP; Synthetic antimicrobial peptide) [compound 123] | – | 65% | –
12 | 124 (RRRPFRPPIRPPLRPPVRPPLRPPFRP; Synthetic antimicrobial peptide) [compound 124] | – | 73% | –
13 | 267 (RRRPPRLPRPLPFRPPPRVPRPFPIRP; Synthetic antimicrobial peptide) [compound 267] | 94% | – | –
14 | 227 (RRRPPRLPRPFPIRPPPRVPRPVPIRP; Synthetic antimicrobial peptide) [compound 227] | 94% | – | –
15 | 129 (RRRPFRPPFRPPVRPPFRPPIRPPLRP; Synthetic antimicrobial peptide) [compound 129] | – | 69% | –
16 | 313 (RRRPPRVPRPIPIRPPPRVPRPVPVRP; Synthetic antimicrobial peptide) [compound 313] | 92% | – | –
17 | 216 (RRRPPRLPRPFPFRPPPRPRPLPVRP; Synthetic antimicrobial peptide) [compound 216] | 95% | – | –
18 | 84 (RRRPIRPPLRPPIRPPFRPPFRPPLRP; Synthetic antimicrobial peptide) [compound 84] | – | 80% | –
19 | 269 (RRRPPRLPRPLPFRPPPRVPRPVPVRP; Synthetic antimicrobial peptide) [compound 269] | 90% | – | –
20 | 303 (RRRPPRLPRPVPLRPPPRVPRPLPIRP; Synthetic antimicrobial peptide) [compound 303] | 91% | – | –
21 | 159 (RRRPVRPPIRPPIRPPVRPPLRPPVRP; Synthetic antimicrobial peptide) [compound 159] | – | 35% | –
22 | 45 (RRRPRPFPRPFPRPLPRPIPRPFPRPV; Synthetic antimicrobial peptide) [compound 45] | – | – | Growth inhibition (%) [5]: 69%

Row | Substance | Growth inhibition (%) [1] | Growth inhibition (%) [3] | further results
23 | 90 (RRRPFRPPIRPPFRPPFRPPVRPPFRP; Synthetic antimicrobial peptide) [compound 90] | – | 74% | –
24 | 103 (RRRPLRPPIRPPIRPPVRPPFRPPIRP; Synthetic antimicrobial peptide) [compound 103] | – | 73% | –
25 | 278 (RRRPPRLPRPLPIRPPPRVPRPLPFRP; Synthetic antimicrobial peptide) [compound 278] | 98% | – | –
26 | 230 (RRRPPRLPRPFPLRPPPRFPRPLPLRP; Synthetic antimicrobial peptide) [compound 230] | 94% | – | –
27 | 26 (RRRPPRVPPRFPPRVPPRFPPRVPLRL; Synthetic antimicrobial peptide) [compound 26] | – | – | Growth inhibition (%) [4]: 86%
28 | 50 (RRRPRPFPRPLPRPVPRPFPRPVPRPV; Synthetic antimicrobial peptide) [compound 50] | – | – | Growth inhibition (%) [5]: 69%
29 | 250 (RRRPPRLPRPIPFRPPPRIPRPIPVRP; Synthetic antimicrobial peptide) [compound 250] | 96% | – | –
30 | 253 (RRRPPRLPRPIPFRPPPRLPRPIPIRP; Synthetic antimicrobial peptide) [compound 253] | 91% | – | –
31 | 202 (RRRPFRPPFRPPFRPPLRPPFRPPFRP; Synthetic antimicrobial peptide) [compound 202] | – | 84% | –
32 | 61 (RRRPRPVPRPFPRPVPRPLPRPFPRPF; Synthetic antimicrobial peptide) [compound 61] | – | – | Growth inhibition (%) [5]: 97%
33 | 299 (RRRPPRLPRPVPIRPPPRFPRPIPFRP; Synthetic antimicrobial peptide) [compound 299] | 96% | – | –
34 | 9 (RRRPPFRPPFRPPFRPPFRPPFRPPFR; Synthetic antimicrobial peptide) [compound 9] | – | – | Growth inhibition (%) [2]: 67%
35 | 302 (RRRPPRLPRPVPLRPPPRFPRPVPVRP; Synthetic antimicrobial peptide) [compound 302] | 82% | – | –
36 | 96 (RRRPFRPPIRPPFRPPIRPPLRPPIRP; Synthetic antimicrobial peptide) [compound 96] | – | 71% | –
37 | 254 (RRRPPRLPRPIPFRPPPRVPRPFPIRP; Synthetic antimicrobial peptide) [compound 254] | 77% | – | –
38 | 241 (RRRPPRLPRPFPVRPPPRIPRPIPFRP; Synthetic antimicrobial peptide) [compound 241] | 96% | – | –
39 | 114 (RRRPLRPPLRPPFRPPLRPPFRPPFRP; Synthetic antimicrobial peptide) [compound 114] | – | 74% | –
40 | 242 (RRRPPRLPRPFPVRPPPRLPRPVPFRP; Synthetic antimicrobial peptide) [compound 242] | 90% | – | –
41 | 246 (RRRPPRLPRPFPVRPPPRVPRPFPVRP; Synthetic antimicrobial peptide) [compound 246] | 95% | – | –
42 | 144 (RRRPIRPPLRPPVRPPVRPPFRPPFRP; Synthetic antimicrobial peptide) [compound 144] | – | 64% | –
43 | 128 (RRRPFRPPFRPPLRPPFRPPVRPPLRP; Synthetic antimicrobial peptide) [compound 128] | – | 69% | –
44 | 217 (RRRPPRLPRPFPFRPPPRVPRPFPLRP; Synthetic antimicrobial peptide) [compound 217] | 93% | – | –

Row | Substance | Growth inhibition (%) [1] | Growth inhibition (%) [3] | further results
45 | 221 (RRRPPRLPRPFPIRPPPRFPRPLPFRP; Synthetic antimicrobial peptide) [compound 221] | 93% | – | –
46 | 306 (RRRPPRLPRPVPVRPPPRFPRPVPVRP; Synthetic antimicrobial peptide) [compound 306] | 90% | – | –
47 | 53 (RRRPRPFPRPVPRPIPRPFPRPVPRPV; Synthetic antimicrobial peptide) [compound 53] | – | – | Growth inhibition (%) [5]: 62%
48 | 78 (RRRPLRPPFRPPFRPPFRPPIRPPVRP; Synthetic antimicrobial peptide) [compound 78] | – | 83% | –
49 | 2 (RRRPRFPPRFPPRFPPRFPPRFPPRFP; Synthetic antimicrobial peptide) [compound 2] | – | – | Growth inhibition (%) [2]: 45%
50 | 174 (RRRPIRPPIRPPFRPPLRPPFRPPFRP; Synthetic antimicrobial peptide) [compound 174] | – | 80% | –
51 | 139 (RRRPFRPPFRPPIRPPFRPPIRPPVRP; Synthetic antimicrobial peptide) [compound 139] | – | 67% | –
52 | 259 (RRRPPRLPRPIPVRPPPRFPRPIPVRP; Synthetic antimicrobial peptide) [compound 259] | 98% | – | –
53 | 305 (RRRPPRLPRPVPVRPPPRFPRPVPVRP; Synthetic antimicrobial peptide) [compound 305] | 90% | – | –
54 | 204 (RRRPLRPPLRPPFRPPIRPPFRPPFRP; Synthetic antimicrobial peptide) [compound 204] | – | 76% | –
55 | 192 (RRRPFRPPFRPPFRPPVRPPVRPPFRP; Synthetic antimicrobial peptide) [compound 192] | – | 92% | –
56 | 226 (RRRPPRLPRPFPIRPPPRVPRPIPVRP; Synthetic antimicrobial peptide) [compound 226] | 94% | – | –
57 | 290 (RRRPPRLPRPLPVRPPPRVPRPLPLRP; Synthetic antimicrobial peptide) [compound 290] | 94% | – | –
58 | 127 (RRRPIRPPFRPPLRPPFRPPFRPPLRP; Synthetic antimicrobial peptide) [compound 127] | – | 67% | –
59 | 121 (RRRPIRPPLRPPVRPPIRPPFRPPFRP; Synthetic antimicrobial peptide) [compound 121] | – | 65% | –
60 | 35 (RRRPRPFPRPFPRPFPRPFPRPIPRPF; Synthetic antimicrobial peptide) [compound 35] | – | – | Growth inhibition (%) [5]: 78%
61 | 19 (RRRPPRLPPRFPPRFPPRIPPRFPPRI; Synthetic antimicrobial peptide) [compound 19] | – | – | Growth inhibition (%) [4]: 78%
62 | 62 (RRRPRPIPRPIPRPFPRPFPRPFHAQSNCSRTKTHLRRGSE; Synthetic antimicrobial peptide) [compound 62] | – | – | Growth inhibition (%) [5]: 77%
63 | 231 (RRRPPRLPRPFPLRPPPRLPRPFPFRP; Synthetic antimicrobial peptide) [compound 231] | 98% | – | –
64 | 38 (RRRPRPFPRPFPRPFPRPIPRPVPRPI; Synthetic antimicrobial peptide) [compound 38] | – | – | Growth inhibition (%) [5]: 64%

— US7833967B2, “Synthetic antimicrobial polypeptides” (priority 2003, dated 2010)
